# Data from US5990158A, “Carboxylic acid derivatives, method of manufacturing the same and therapeutic agents containing these compounds” (Kotobuki Seiyaku Co., Ltd., priority 1996, dated 1999).
# Tests used:
# [1] = biological target: T1, MMP-2 (gelatinase A) (Homo sapiens, UniProt P08253); assay: MMP-2 (gelatinase A) inhibitory activity, FITC-labeled type IV collagen degradation; assay type: biochemical; conditions: 50% inhibition of collagen type IV degradation; activated pro MMP-2 from transfected COS-1 cells; 42° C., 4 h
# T1 construct: made in house; host or cells: COS-1 cells transfected with human pro-MMP-2 cDNA (secreted into culture medium)
# T1 sequence (P08253 110-660): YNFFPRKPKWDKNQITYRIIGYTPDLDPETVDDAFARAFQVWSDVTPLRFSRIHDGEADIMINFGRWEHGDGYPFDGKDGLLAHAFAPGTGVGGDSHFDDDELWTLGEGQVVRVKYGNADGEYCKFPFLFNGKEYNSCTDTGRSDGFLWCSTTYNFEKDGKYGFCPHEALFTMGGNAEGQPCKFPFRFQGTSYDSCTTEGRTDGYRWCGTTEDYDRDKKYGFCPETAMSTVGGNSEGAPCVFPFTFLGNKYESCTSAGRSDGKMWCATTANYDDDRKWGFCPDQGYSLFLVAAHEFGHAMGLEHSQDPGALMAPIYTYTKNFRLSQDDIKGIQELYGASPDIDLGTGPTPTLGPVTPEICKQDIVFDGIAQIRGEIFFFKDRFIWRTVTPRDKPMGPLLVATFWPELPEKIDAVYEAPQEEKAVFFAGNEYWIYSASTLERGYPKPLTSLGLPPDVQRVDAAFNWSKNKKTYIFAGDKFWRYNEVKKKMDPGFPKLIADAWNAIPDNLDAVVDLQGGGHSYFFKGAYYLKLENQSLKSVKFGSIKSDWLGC
# Method: (§1) Experiment 2: MMP-2 (gelatinase A) and MMP-9 (gelatinase B) inhibitory activities.
# (§2) Pro MMP-2 was obtained from culture medium separated from human pro-MMP-2 cDNA tranfected COS-1 cells. It was activated by 1 mM (p-aminophenyl)mercury acetic acid, and MMP-9, derived human fibrosarcome,was purchased from Yagai Co. Ltd. Inhibition of both enzyme activities were estimated by enzyme assay using type IV collagenase activity assay kit (Yagai Co. Ltd., Biswaz, C. et al., J. Cell.Biochem., 28, 39 (1984)). MMP-2 or MMP-9 (0.01 U/ml), test compound (several concentrations), and FITC-labeled type IV collagen (derived bovine placenta, 25 μg) were incubated in 100 μl of 0.05M Tris - HCl buffer (pH 7.5) containing 200 mM NaCl and 5 mM CaCl2 at 42° C. for 4 h. Inhibitory activity of compound was evaluated by same as that of MMP-1 assay. Unchanged type IV collagen was precipitated by centrifugation, and the degradation percent of substrate was calculated by comparison with a fluorescence intensity of heat denatured substrate as 100%. Inhibition of enzyme activity was expressed as an IC50 value which was the concentration of test compound necessary to produce 50% inhibition of collagen type IV degradation by enzyme.
# [2] = biological target: T2, MMP-9 (gelatinase B) (Homo sapiens, UniProt P14780); assay: MMP-9 (gelatinase B) inhibitory activity, FITC-labeled type IV collagen degradation; assay type: biochemical; conditions: 50% inhibition of collagen type IV degradation; MMP-9 derived from human fibrosarcoma; 42° C., 4 h
# T2 construct: purchased Yagai Co. Ltd; host or cells: human fibrosarcoma
# Method: as §1, §2
# T2 sequence (P14780 94-707): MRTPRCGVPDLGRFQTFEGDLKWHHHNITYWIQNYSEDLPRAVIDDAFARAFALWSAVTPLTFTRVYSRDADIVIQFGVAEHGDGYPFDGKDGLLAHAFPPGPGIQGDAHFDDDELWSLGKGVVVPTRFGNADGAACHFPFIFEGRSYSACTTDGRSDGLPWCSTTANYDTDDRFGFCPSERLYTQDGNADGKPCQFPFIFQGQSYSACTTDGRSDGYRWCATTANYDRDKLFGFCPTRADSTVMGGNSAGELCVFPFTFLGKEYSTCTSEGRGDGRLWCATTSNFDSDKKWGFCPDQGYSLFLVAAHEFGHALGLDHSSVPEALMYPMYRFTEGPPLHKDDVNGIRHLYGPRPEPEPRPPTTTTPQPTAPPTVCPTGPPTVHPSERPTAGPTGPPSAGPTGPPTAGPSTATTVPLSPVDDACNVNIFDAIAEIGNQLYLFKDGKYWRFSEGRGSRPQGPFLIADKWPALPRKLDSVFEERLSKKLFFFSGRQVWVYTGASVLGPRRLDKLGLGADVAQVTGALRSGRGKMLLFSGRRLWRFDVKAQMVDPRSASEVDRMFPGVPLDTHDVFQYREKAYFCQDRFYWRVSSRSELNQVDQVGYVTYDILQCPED
IC50 [1] [nM],IC50 [2] [nM],Structure (SMILES)
1000,300,"CNC(=O)[C@@H](NC(=O)[C@H](CCc1ccc2cccccc1-2)CC(=O)O)C(C)(C)C [Compound 4, N-[(2R)-2-(1'-Carboxymethyl)-4-(azulene-1-yl)butyroyl]-L-tert-leucine N-Methylamide]"
76,13,"COc1ccc(C[C@H](NC(=O)[C@H](CCCOc2ccc(OC)cc2)CC(=O)O)C(=O)NC(C)(C)C)cc1 [Compound 19, (2S)-2-[(2R)-2-(1'Carboxymethyl)-5-[(methoxyphenyl)oxy]pentanoyl]amino-3-(4-methoxy)phenylpropanoyl-tert-butylamide]"
1000,110,CNC(=O)[C@H](Cc1ccccc1)NC(=O)[C@H](CCCOc1ccc(OC)cc1)CC(=O)OCc1oc(=O)oc1C [Compound 61]

# Continued, compound first:
Structure (SMILES),IC50 [1] [nM],IC50 [2] [nM]
"CNC(=O)[C@H](Cc1ccc(OC)cc1)NC(=O)[C@H](CCOc1ccc(OC)cc1)CC(=O)O [Compound 17, (2S)-2-[(2R)-2-(1'-Carboxymethyl)-4-[(4-methoxyphenyl)-oxy]butyroyl]amino-3-(4-methoxy)phenylpropanoylmethylamide]",46,13
"CCOc1ccc(C[C@H](NC(=O)[C@H](CCc2ccc3cccccc2-3)CC(=O)NO)C(=O)NC)cc1 [Compound 36, (2S)-2-[(2R)-2-(2'-Hydroxyamino-2'-oxo-ethyl)-4-(azulene-1-yl)butyloyl]amino-3-(4-ethoxy)phenylpropanoylmethylamide]",180,24
"CCOc1ccc(OCCCC[C@H](CC(=O)O)C(=O)N[C@@H](Cc2ccccc2)C(=O)NC)cc1 [Compound 15, N-((2R)-2-(1'-Carboxymethyl)-6-[(4-ethoxyphenyl)oxy]hexanoyl]-L-phenylananine N-Methylamide]",61,420
"COc1ccc(OCCC[C@H](CC(=O)NO)C(=O)N[C@H](C(=O)NCCS(N)(=O)=O)C(C)(C)C)cc1 [Compound 56, 2-[N-[(2R)-2-(2'-Hydroxyamino-2'-oxo-ethyl)-5-[(4-methoxyphenyl)oxy]pentanoyl]-L-tert-leucyl]amino-ethanesulfonamide]",2.3,0.26
"C=CCOc1ccc(OCCCC[C@H](CC(=O)O)C(=O)N[C@@H](Cc2ccccc2)C(=O)NC)cc1 [Compound 16, N-[(2R)-2-(1'-Carboxymethyl)-6-[(4-allyloxyphenyl)oxy]hexanoyl]-L-phenylananine N-Methylamide]",180,1000
